Data on one compound can be found in ChEMBL document CHEMBL1201862, “PubChem BioAssay data set” (2004).

The source made the active and inactive calls. No rule for the calls is given here.

The target in this assay is T1, Rac GTPase-activating protein 1 (Homo sapiens, UniProt Q9H0H5).
T1 sequence (Q9H0H5 whole entry): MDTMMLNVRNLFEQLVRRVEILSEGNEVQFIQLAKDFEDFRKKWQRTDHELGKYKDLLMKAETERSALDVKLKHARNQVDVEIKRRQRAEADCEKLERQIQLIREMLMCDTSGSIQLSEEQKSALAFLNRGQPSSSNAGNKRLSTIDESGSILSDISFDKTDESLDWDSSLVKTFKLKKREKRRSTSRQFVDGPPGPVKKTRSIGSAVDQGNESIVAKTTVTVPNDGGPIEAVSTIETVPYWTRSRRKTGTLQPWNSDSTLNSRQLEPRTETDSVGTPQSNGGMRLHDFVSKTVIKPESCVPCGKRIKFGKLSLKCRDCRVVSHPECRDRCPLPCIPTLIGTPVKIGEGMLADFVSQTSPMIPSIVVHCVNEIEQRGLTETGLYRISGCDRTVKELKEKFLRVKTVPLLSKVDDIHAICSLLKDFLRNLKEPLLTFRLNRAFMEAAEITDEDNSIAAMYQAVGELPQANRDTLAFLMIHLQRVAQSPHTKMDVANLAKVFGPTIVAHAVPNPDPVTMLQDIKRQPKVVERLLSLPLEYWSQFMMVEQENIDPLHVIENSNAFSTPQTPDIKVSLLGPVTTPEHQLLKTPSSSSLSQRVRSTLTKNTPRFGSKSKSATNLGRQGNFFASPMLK
The assay is described as follows: MgcRacGAP GTPase-activating activity inhibitors, confirmation, biochemical, ADP Hunter fluorescence, primary and confirmatory (AID 624330). The format is functional.

In the case of `O=[N+]([O-])c1ccc(N/N=C/c2ccc[nH]2)cc1`, the IC50 was 44.5 µM (active).

By IC50 is commonly meant the midpoint of a concentration-inhibition curve.
